The results in this text go back to US20140309265A1, “MACROCYCLIC COMPOUNDS FOR INHIBITION OF INHIBITORS OF APOPTOSIS” (Ensemble Therapeutics, priority 2011, published 2014).

Format in all cases: binding
Assay [1] deals with T1, XIAP His-BIR2 (124-240/C202A/C213G) (Homo sapiens, UniProt P98170, C202A/C213G).
T1 construct: additions of His-BIR2 (124-240/C202A/C213G), Biotinylated SMAC peptide
The experiment in a line: XIAP-BIR2/SMAC Peptide AlphaScreen Assay. The protocol:
A. XIAP-BIR2/SMAC Peptide AlphaScreen Assay Assays were performed in white, flat-bottom, 384-well ProxiPlates (Perkin Elmer). […] The reaction was incubated at room temperature for 60 minutes. After 60 minutes, 2.5 μL of Alphascreen detection reagent (Perkin Elmer) was added to the reaction mixture and incubated at room temperature in the dark for 120 minutes. The Alphascreen signal generated by the reaction was detected on the Envision Plate Reader. […] Compounds were dissolved at 10 mM in dimethylsulfoxide (DMSO) and evaluated at eleven concentrations. IC50 values were derived by non-linear regression analysis.
A general note: Bead proximity is the source of the signal in Alpha formats.

Assay [2] has as its target N-His-Tb-BIR3(241-356, XIAP) (Homo sapiens, UniProt P98170). The experiment in a line: XIAP-BIR3 SMAC Peptide Fluorescence Polarization Assay (FPA). On the technique in general: Fluorescence polarisation rises when a labelled molecule tumbles more slowly, as on binding a larger partner.
For assay [3], the target named is N-His-Tb-BIR3(262-352, cIAP1) (Homo sapiens, UniProt Q13490). The experiment in a line: cIAP1-BIR3 SMAC Peptide Fluorescence Polarization Assay (FPA). Conditions: Table 3. The method, then:
C. cIAP1-BIR3SMAC Peptide Fluorescence Polarization Assay (FPA)
Assays were performed in black, round-bottom, 96-well plates. The final assay volume was 30 μL prepared from additions of N-His-Tb-BIR3(262-352, cIAP1), fluoresceinated modified SMAC peptide, and test compounds in assay buffer consisting of 20 mM Sodium Phosphate, 1 mM EDTA, 50 mM NaCl, and 0.05% Pluronic F68. The reaction was incubated at room temperature for 60 minutes and fluorescence polarization of the reaction was detected on the LJL Plate Reader. […] The final concentration of reagents in the assay was 36.1 nM N-His-Tb-BIR3(262-352, cIAP1), 1.4 nM fluoresceinated modified SMAC peptide, and 1% DMSO. […] Compounds were dissolved at 10 mM in dimethylsulfoxide (DMSO) and evaluated at eight concentrations. IC50 values were derived by non-linear regression analysis.

The next assay has as its target T2, His-BIR3 (241-356, XIAP) (Homo sapiens, UniProt P98170).
T2 construct: additions of His-BIR3 (241-356, XIAP), fluorescein labeled SMAC peptide
The experiment in a line: XIAP-BIR3/SMAC Homogeneous Time Resolved Fluorescence (HTRF) Assay. To be noted: Table 4. (TR-FRET usually uses a lanthanide donor and a delayed reading to cut background.)

The target in assay [4] is T3, His-BIR2-3 (125-356, C202A/C213G, XIAP) (Homo sapiens, UniProt P98170, C202A/C213G).
T3 construct: additions of His-BIR2-3 (125-356, C202A/C213G, XIAP), fluorescein labeled dimeric SMAC peptide
T3 sequence (P98170 125-356 C202A/C213G): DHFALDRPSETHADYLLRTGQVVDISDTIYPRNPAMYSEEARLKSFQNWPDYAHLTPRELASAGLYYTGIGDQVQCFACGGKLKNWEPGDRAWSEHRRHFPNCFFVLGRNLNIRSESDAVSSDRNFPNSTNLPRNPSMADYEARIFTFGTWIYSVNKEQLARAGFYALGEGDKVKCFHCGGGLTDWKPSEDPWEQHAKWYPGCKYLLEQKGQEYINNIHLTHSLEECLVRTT
The experiment in a line: XIAP-BIR2-3 Dimeric SMAC Peptide Homogeneous Time Resolved Fluorescence (HTRF) Assay. To be noted: XIAP BIR2-3, HTRF, Table 4.

Where [5] appears, read: XIAP BIR2, AlphaScreen, Table 2, read-out: BIR2 IC50.
[6] abbreviates: XIAP BIR2, Alphascreen, Table 4, read-out: BIR2 Alpha Screen IC50.
The mark [7] stands for this setting: XIAP BIR3, FPA, Table 2, read-out: BIR3 IC50.

Each structure is given as a SMILES string. Like-named read-outs stand apart in the source and are kept apart here.

T1 sequence (P98170 124-240 C202A/C213G): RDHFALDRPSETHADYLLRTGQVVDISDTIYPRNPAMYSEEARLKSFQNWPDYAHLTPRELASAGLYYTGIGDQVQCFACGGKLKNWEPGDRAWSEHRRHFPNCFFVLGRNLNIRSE
Chain of N-His-Tb-BIR3(262-352, cIAP1) (Q13490 262-352): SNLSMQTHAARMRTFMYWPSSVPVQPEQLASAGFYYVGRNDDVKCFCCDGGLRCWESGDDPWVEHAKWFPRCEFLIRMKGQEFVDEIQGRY
Chain of N-His-Tb-BIR3(241-356, XIAP) (P98170 241-356): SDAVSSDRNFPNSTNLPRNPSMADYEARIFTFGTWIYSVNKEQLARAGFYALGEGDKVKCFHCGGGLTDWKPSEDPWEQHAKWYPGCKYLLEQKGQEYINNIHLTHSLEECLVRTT
T2 sequence (P98170 241-356): as above

Regarding `CN[C@@H](C)C(=O)N[C@H](C(=O)N1C[C@@H]2C[C@H]1C(=O)N[C@@H](Cc1ccc3ccccc3c1)C(=O)N[C@H](C(=O)O)Cc1ccc(cc1)OCc1cn(nn1)[C@H]1C[C@@H](C(=O)N[C@@H](Cc3ccc4ccccc4c3)C(=O)N[C@H](C(=O)O)Cc3ccc(cc3)OCc3cn2nn3)N(C(=O)[C@@H](NC(=O)[C@H](C)NC)C(C)C)C1)C(C)C` [Compound 110], the IC50 – broadly, the concentration that gives 50% inhibition – was below 2000 nM in assay [1] (setting [5]), below 50 nM in assay [2] and below 50 nM in assay [3].
In the case of `CN[C@@H](C)C(=O)N[C@H](C(=O)N1C[C@@H]2C[C@H]1C(=O)N[C@@H](Cc1ccc3ccccc3c1)C(=O)N[C@H](C(=O)O)Cc1ccc(cc1)OCc1cn(nn1)[C@H]1C[C@@H](C(=O)N[C@@H](Cc3ccc4ccccc4c3)C(=O)N[C@H](C(=O)NS(=O)(=O)C3CC3)Cc3ccc(cc3)OCc3cn2nn3)N(C(=O)[C@@H](NC(=O)[C@H](C)NC)C(C)(C)C)C1)C(C)(C)C` [Compound 147], the half-maximal inhibitory concentration (IC50) was below 2000 nM in assay [1] (setting [6]); below 50 nM in assay [2]; below 10 nM against His-BIR3 (241-356, XIAP); 1 to 10 nM in assay [4].
As for `CN[C@@H](C)C(=O)N[C@H](C(=O)N1C[C@@H]2C[C@H]1C(=O)N[C@@H](Cc1cccc3ccccc13)C(=O)N[C@H](C(=O)O)Cc1ccc(cc1)COc1cn(nn1)[C@H]1C[C@@H](C(=O)N[C@@H](Cc3cccc4ccccc34)C(=O)N[C@H](C(=O)O)Cc3ccc(cc3)OCc3cn2nn3)N(C(=O)[C@@H](NC(=O)[C@H](C)NC)C(C)C)C1)C(C)C` [Compound 111], the half-inhibitory concentration (IC50) in assay [1] (setting [5]) is below 2000 nM; in assay [2], below 50 nM; in assay [3], below 50 nM.
As for `CN[C@@H](C)C(=O)N[C@H](C(=O)N1C[C@@H]2C[C@H]1C(=O)N[C@@H](Cc1ccccc1)C(=O)N[C@H](C(=O)O)Cc1ccc(cc1)OCCCn1cc(nn1)-c1ccc(cc1)-c1cn(nn1)[C@H]1C[C@@H](C(=O)N[C@@H](Cc3ccccc3)C(=O)N[C@H](C(=O)O)Cc3ccc(cc3)OCCCn3cc(nn3)-c3ccc(cc3)-c3cn2nn3)N(C(=O)[C@@H](NC(=O)[C@H](C)NC)C(C)C)C1)C(C)C` [Compound 137], the 50% inhibitory concentration (IC50) is below 2000 nM in assay [1] (setting [5]), below 50 nM in assay [2] and below 50 nM in assay [3].
`CN[C@@H](C)C(=O)N[C@H](C(=O)N1C[C@@H]2C[C@H]1C(=O)N[C@@H](Cc1ccc3ccccc3c1)C(=O)N[C@H](C(=O)NS(=O)(=O)C1CC1)Cc1ccc(cc1)OCc1cn(nn1)[C@H]1C[C@@H](C(=O)N[C@@H](Cc3ccc4ccccc4c3)C(=O)N[C@H](C(=O)NS(=O)(=O)C3CC3)Cc3ccc(cc3)OCc3cn2nn3)N(C(=O)[C@@H](NC(=O)[C@H](C)NC)C(C)(C)C)C1)C(C)(C)C` [Compound 148]: the concentration for half-maximal inhibition (IC50) was below 2000 nM in assay [1] (setting [6]); below 50 nM in assay [2]; below 10 nM against His-BIR3 (241-356, XIAP); at most 1 nM in assay [4].
Consider `CN[C@@H](C)C(=O)N[C@@H](CC1CCCCC1)C(=O)N1C[C@@H]2C[C@H]1C(=O)N[C@@H](Cc1ccccc1)C(=O)N[C@H](C(=O)O)Cc1ccc(cc1)OCc1cn(nn1)[C@H]1C[C@@H](C(=O)N[C@@H](Cc3ccccc3)C(=O)N[C@H](C(=O)O)Cc3ccc(cc3)OCc3cn2nn3)N(C(=O)[C@H](CC2CCCCC2)NC(=O)[C@H](C)NC)C1` [Compound 109], for which the values for the 50% inhibitory concentration (IC50) in assay [1] (setting [5]) and in assay [2] were below 2000 nM and below 50 nM, respectively.
Turning to `CN[C@@H](C)C(=O)NCC1(C(=O)N2C[C@@H]3C[C@H]2C(=O)N[C@@H](Cc2ccccc2)C(=O)N[C@H](C(=O)O)Cc2ccc(cc2)OCc2cn(nn2)[C@H]2C[C@@H](C(=O)N[C@@H](Cc4ccccc4)C(=O)N[C@H](C(=O)O)Cc4ccc(cc4)OCc4cn3nn4)N(C(=O)C3(CNC(=O)[C@H](C)NC)CC3)C2)CC1` [Compound 121], the IC50 in assay [1] (setting [5]) is above 12000 nM; in assay [2] (setting [7]) it was above 100 nM.
Turning to `CN[C@@H](C)C(=O)N[C@H](C(=O)N1C[C@@H]2C[C@H]1C(=O)N[C@@H](CC1CCCCC1)C(=O)N[C@H](C(=O)O)Cc1ccc(cc1)OCc1cn(nn1)[C@H]1C[C@@H](C(=O)N[C@@H](CC3CCCCC3)C(=O)N[C@H](C(=O)O)Cc3ccc(cc3)OCc3cn2nn3)N(C(=O)[C@@H](NC(=O)[C@H](C)NC)C(C)C)C1)C(C)C` [Compound 122], the results for the IC50 in assay [1] (setting [5]) and in assay [2] were 2000 to 12000 nM and above 100 nM, respectively.
Take `CN[C@@H](C)C(=O)N[C@H](C(=O)N1CCc2cn(nn2)CCCOc2ccc(cc2)C[C@@H](C(=O)O)NC(=O)[C@H](Cc2ccccc2)NC(=O)CN(C(=O)[C@@H](NC(=O)[C@H](C)NC)C(C)C)CCc2cn(nn2)CCCOc2ccc(cc2)C[C@@H](C(=O)O)NC(=O)[C@H](Cc2ccccc2)NC(=O)C1)C(C)C` [Compound 103]: the IC50 in assay [1] (setting [5]) is 2000 to 12000 nM; in assay [2] (setting [7]), above 100 nM.
For the molecule `C=CCOc1ccc(C[C@@H]2NC(=O)[C@@H]3C[C@@H](CN3C(=O)[C@@H](NC(=O)[C@H](C)NC)C(C)C)n3cc(nn3)COc3ccc(cc3)C[C@@H](C(=O)O)NC(=O)[C@H](Cc3ccc(OCC=C)cc3)NC(=O)[C@@H]3C[C@@H](CN3C(=O)[C@@H](NC(=O)[C@H](C)NC)C(C)C)n3cc(nn3)COc3ccc(cc3)C[C@@H](C(=O)O)NC2=O)cc1` [Compound 126], the IC50 in assay [1] (setting [5]) is 2000 to 12000 nM; in assay [2] it was 50 to 100 nM.
Turning to `CN[C@@H](C)C(=O)N[C@@H](C)C(=O)N1C[C@@H]2C[C@H]1C(=O)N[C@@H](Cc1ccccc1)C(=O)N[C@H](C(=O)O)Cc1ccc(cc1)OCc1cn(nn1)[C@H]1C[C@@H](C(=O)N[C@@H](Cc3ccccc3)C(=O)N[C@H](C(=O)O)Cc3ccc(cc3)OCc3cn2nn3)N(C(=O)[C@H](C)NC(=O)[C@H](C)NC)C1` [Compound 118], the IC50 is above 12000 nM in assay [1] (setting [5]) and 50 to 100 nM in assay [2].
